Results taken from patent US6545041B2, “Tumor necrosis factor alpha (TNF-α) inhibiting pharmaceuticals” (Yessum Research Development Co. of the Hebrew University of …, priority 1995, dated 2003).
“And” between values parts separate entries of the source, which are not always exact repeats. Equal entries are not always repeated. “Also recorded” adds a separate entry of the source.

How the values were obtained:
[1] = cited from earlier work
TNF [2] = test: Serum TNF activity (bioassay) and levels (ELISA) in LPS treated mice; type: in vivo, mice (C57BL/6); details: 100 μg LPS ip with 200 μg/mouse compound, 90 min
Experimental: An early response to LPS administration is the elevation of serum levels of TNF, which peaks at 1.5-2 hr after LPS administration. Mice treated with LPS serve as a model for the effect of drugs on reducing TNF levels under these conditions.
Serum levels of TNF peak within 1.5 hr following LPS administration, and at this time point, we assessed both TNF activity and levels in the serum.
Mice (C57BL/6) were injected ip with 100 μg LPS, concomitantly with HU-211, HU-210, or HU-245 (200 μg/mouse), and 90 min later they were bled, the sera separated and TNF was assayed for its activity (bioassay) and levels (using ELISA kit).

LPS treated mice = test: Survival of LPS treated mice; type: in vivo, BALB/c male mice; details: for survival rate / mortality: 24 hours
Experimental: The effect of HU-211 on the survival of mice, in response to administration of LPS was assessed. The survival was followed up to 48 hr.
Animals are administered with either HU-211 at a dose of 10 mg/kg i.p. or vehicle alone (10 ml/kg i.p.), and 30 minutes later with LPS IV. Two dose levels of LPS were tested in the present study: 10 and 15 mg/kg.
Mortality rate was recorded once a day for 2 days.

LPS treated rats = test: LPS-induced hypotension and hematocrit in rats; type: in vivo, Sprague Dawley rats
Experimental: A prominent manifestation of endotoxemia is hypotension, and the effect of a drug on mean arterial blood pressure (MABP) indicates its potency as an anti-endotoxic shock agent. The protective effect of a test compound is evaluated in rats treated with LPS, in which the blood pressure and other vital signs are monitored up to 4 hrs after induction of endotoxemia.
Rats were individually anesthetized with halothane in 70% nitrogen, 30% oxygen. The right femoral artery was catheterized using polyethylene tubes (PE-50, Clay Adams, USA), and connected to a computerized physiograph through a pressure transducer (XTT Vigo, USA). The animals are then connected via a rectal probe to the above physiological recorder. Rectal temperature is kept throughout the study between 37° C. and 38° C., using a heating lamp. Following 10-15 minutes of baseline recording, animals are intravenously administered an injection of saline, vehicle alone or HU-211 at a dose of 4 mg/kg. As soon as possible after completion of the first injection (2-5 minutes later) they are administered an intravenous injection of LPS at a dose of 15 mg/kg (in a volume of 3 ml/kg). Blood pressure and heart rate are recorded for the following 4 hrs. The hematocrit is measured and recorded just prior to drug administration, and 1, 2, and 3 hours later. At the end of the follow up period, animals are sacrificed by deep anesthesia with halothane.

[3] = test system: D-galactosamine (D-GALN)-sensitized mice; test: Lethal toxicity by LPS in D-galactosamine-sensitized mice (endotoxic shock); type: in vivo, mice (C57BL/6); details: for lethality in HU-211 treated group dead/total: LPS 10 ng/mouse + D-GALN, HU-211 7.5 mg/kg plus 8 hourly injections, 24 hrs, exp. no 1-3 and total, controls 20/20, 7.5 mg/kg
Experimental: The effect of HU-211 in endotoxic shock was assessed in a model of lethal toxicity by lipopolysacharide (LPS) in D-galactosamine (D-GALN)-sensitized mice (Galanos et al. PNAS 76: 5739, 1979, Lehman et al. J. Exp. Med. 165: 657, 1987). In this model 100% mortality occurs within 6-8 hrs of administration of the combined treatment.
LPS (10 ng/mouse) and D-GALN ([…]) were coadministered to 20 mice (C57BL/6). Half of the mice served as controls, and the other were treated within 5 min of injection with HU-211 (7.5 mg/kg body weight), followed by 8 additional injections every hour. The survival was followed up to 24 hrs, and the results of this experiment are depicted in Table 1.

TNF [4] = test: Closed head injury (head trauma) model in rats: TNF, edema, clinical outcome; type: in vivo, rat; details: FIG. 4
Description: Closed head injury is associated with high mortality and morbidity. It induces edema formation, blood-brain-barrier (BBB) disruption, neuronal cell death and impairment of motor and cognitive functions. Animals subjected to head trauma in a controlled fashion serve as models in which to test drugs of therapeutic potential. Test compounds can be evaluated both for improved clinical outcome and for reduction of edema induced by closed head injury. The ability of compounds to reduce the severity of neurological symptoms and to reduce brain edema is considered a measure of their potency in reducing brain damage.
The effect of HU-211 on TNF production was assessed in a model of head trauma (HT) in rats. Injury was induced in anesthetized rats by a weight-drop device followed by a recovery period of up to 30 days. This type of trauma produces brain edema (i.e. increase in water content, decrease in specific gravity in the brain), breakdown of the blood brain barrier (BBB), clinical and cognitive dysfunction. […]
In this experiment we compared the effects of two agents: 1) pentoxyfilline (PTX), a methylxanthine known for its ability to prevent or attenuate the LPS-induced release of TNF both in vitro and in vivo. […] The levels of TNF were measured after CHI in order to determine whether the beneficial effect of HU-211 is also associated with suppression of TNF production or activity.

[5] = test system: collagen induced arthritis; test: Collagen type 2 induced arthritis; type: in vivo, CD-1 male mice; details: HU-211 20 mg/kg i.p. daily or every 3 days; p<0.01
Experimental: CD-1 male mice (27-33 gr.), five in each treatment group (supplied by Harlan Israel) were used in the present study. Each animal was administered with collagen type 2 (Sigma, batch no. 111H7180) 100 μg/ml in 0.1 ml complete Freund's adjuvant (Sigma batch no. 084H8800). The collagen was administered s.c. into the base of the tail. The volume of each hind paw was measured using a plathysmometer (Hugo Basill, Italy) before collagen administration and on days 1, 4, 7, 10, 13 and 16 of treatment (30 minutes after drug treatment).
Five treatment groups were tested in the present study: vehicle (blank cosolvent) 10 ml/kg once daily, HU-211 10 mg/kg every three days, HU-211 20 mg/kg once daily, HU-211 20 mg/kg every 3 days and diclofenac 10 mg/kg (10 ml/kg) every 3 days. All treatments were administered intraperitoneally. HU-211 was used from a 5% preparation in cosolvent (Pharmos batch no. PRN-C-08623041), by diluting with saline (B. Braun batch no. 3431A41A) 1:25. The same procedure was performed with blank cosolvent (Pharmos batch no. 608945). Diclofenac was prepared in Pharmos, batch no. LG-121\70 1 mg/ml. At the same time paws were measured they were clinically evaluated according to the following method (Williams R. O., Proc. Natl. Acad. Sci. USA: 89:9784-9788): 0—normal, 1—slight swelling and erythema, 2—pronounced edematous swelling and 3—joint rigidity. […]

EAE = test: Experimental autoimmune encephalomyelitis (EAE) in Lewis rats; type: in vivo; details: single iv injection day 10 to 18 post induction, FIG. 6
Description: Autoimmune diseases are associated with elevated levels of TNF. The models which are most conveniently studied are experimental allergic encephalomyelitis (EAE) and experimental autoimmune arthritis in rodents. EAE is an autoimmune neurological disease elicited by sensitization of the animals to myelin basic protein from the central nervous system, which is also known as basic encephalitogenic protein. EAE is considered by many to represent a model of the human disease multiple sclerosis. Experimental autoimmune arthritis is induced in animals by immunization with collagen in complete Freund's adjuvant. The ability of compounds of the general formula I to prevent or attenuate the clinical symptoms of these autoimmune diseases was tested.
The Lewis rats used were 8 week old females (from OLAC, England). The animals (5 per cage) were maintained on a 12 hour light/12 hour dark regimen, at a constant temperature of 22° C., with food and water ad libitum. EAE was induced in these animals by immunization with purified guinea pig myelin basic protein emulsified in complete Freund's adjuvant. Guinea pig myelin basic protein (mbp) was prepared from spinal cord homogenates defatted with chloroform/ethanol and the isolated protein was purified using ion exchange chromatography. Each animal received 50 micrograms of the purified protein. […]

[6] = Phase I clinical trials, intravenous, healthy human volunteers; type: in vivo; details: dose ranges contemplated for humans
[7] = Solubility in water / aqueous solutions; type: physicochemical
Description: Among the novel compounds tested, monoesters including nicotinate, succinate and maleate are preferred. Most preferred compounds include the glycinate ester and N-substituted glycinate ester salts, such as the trimethyl- and triethylammonium acetate derivatives of HU-211. These novel compounds have the added advantage of being soluble in some aqueous solutions, whereas the parent compounds are extremely hydrophobic.
(§1) This makes the development of formulations suitable for intravenous administration of HU-211 difficult, hampering its clinical application. Water-soluble derivatives of HU-211 designed to readily release the drug by hydrolysis following i.v. administration might overcome this problem and will be used as prodrugs.

[8] = Passage of the blood-brain barrier
Description: as §1

TNF [9] = details: rats, 48 hours after HT; cited from earlier work
[10] = doses far exceeding those contemplated for repression of cytokines; cited from earlier work

CCCCCCC(C)(C)c1cc(O)c2c(c1)OC(C)(C)C1CC=C(CO)CC21 (stereo not shown) [HU-210, 7-hydroxy-Δ^6-tetrahydrocannabinol 1,1-dimethylheptyl homologue, reference compound]
cannabimimetic activity relative to Δ-1-tetrahydrocannabinol ([1]; in vivo): ~100 times

CCCCCCC(C)(C)c1cc(O)c2c(c1)OC(C)(C)C1CC=C(C(=O)O)CC21 (stereo not shown) [HU-245]
TNF levels in serum (ELISA) (TNF [2]): significantly reduced

CCCCCCC(C)(C)c1cc(O)c2c(c1)OC(C)(C)[C@H]1CC=C(CO)C[C@H]21 [HU-211, (+)-(3S,4S)-1,1-dimethylheptyl homologue of 7-hydroxy-Δ^6-tetrahydrocannabinol]
TNF levels in serum (ELISA) (TNF [2]): significantly reduced; also recorded: attenuated the LPS-induced production and action of TNF to a very pronounced extent
TNF activity (S50) in serum, bioassay (TNF [2]; LPS control 1233±237): significantly reduced; also recorded: attenuated the LPS-induced production and action of TNF to a very pronounced extent
survival rate (LPS treated mice; LPS 10 mg/kg iv, HU-211 10 mg/kg i.p., vehicle 43%): 91%
mortality (LPS treated mice; LPS 10 mg/kg iv, HU-211 10 mg/kg i.p., vehicle 57%): 9%
survival (LPS treated mice; LPS 10 mg/kg iv, HU-211 10 mg/kg i.p., 48 hours, vehicle none survived): 33%
survival (LPS treated mice; LPS 10 mg/kg iv, HU-211 10 mg/kg i.p., 72 hours post LPS): None of the animals survived
mortality (LPS treated mice; LPS 15 mg/kg iv, HU-211 10 mg/kg i.p. 30 min before, vehicle 67%): 33%
survival rate (LPS treated mice; LPS 15 mg/kg iv, HU-211 10 mg/kg i.p., vehicle 33%): 67%
survival (LPS treated mice; LPS 15 mg/kg iv, HU-211 10 mg/kg i.p., 48 hours): none of the animals survived
time post-LPS at which normotension was regained (LPS treated rats; HU-211 treated rats): ≤ 30 min
duration of transient hypotension (LPS treated rats; HU-211 treated rats, evident 10 minutes after LPS): 5 to 10 min
LPS-induced increase in hematocrit (LPS treated rats; rats, HU-211 iv 2-3 minutes before LPS, LPS alone about 10% increase): prevented
LPS-induced drop in mean arterial blood pressure (MABP) (LPS treated rats; rats, LPS 15 mg/kg iv, HU-211 4 mg/kg iv pre-administration, LPS alone around 30% reduction): abolished
lethality in HU-211 treated group dead/total [3]: 1/5 and 1/10 and 0/5
lethality in HU-211 treated group dead/total ([3]; pooled total of all experiments): 2/20
survival ([3]; LPS + D-GALN mice, HU-211 7.5 mg/kg, total of experiments, controls 0%): 90%
brain levels of TNF after CHI, compared with pentoxyfilline (TNF [4]): significantly superior to that of pentoxyfilline
brain tissue water content (anti-edema effect) after CHI, compared with pentoxyfilline (TNF [4]): significantly superior to that of pentoxyfilline
clinical signs of arthritis (swelling of the paws) [5]: lowest number of these signs
mean clinical score (EAE): diminution of mean clinical score
toxicity or psychoactivity [6]: no evidence of toxicity or psychoactivity
solubility in water / aqueous solutions [7]: very poor solubility in water
passage of the blood-brain barrier [8]: readily passes the blood-brain barrier
edema and clinical outcome after head trauma (TNF [9]): reduced edema and improved the clinical outcome
cannabimimetic activity ([1]; doses several thousand times higher than the ED50 of HU-210): inactive as a cannabimimetic
stereotypy and locomotor hyperactivity [10]: induction of stereotypy and locomotor hyperactivity
